System: NRF2 (NQO1 activity as marker for NRF2 activation), BEAS-2B cells
Assay: BEAS-2B NQO1 MTT Assay
Format: cell-based
Details: Homo sapiens, EC50 of NQO1 specific activity induction, 48 hours incubation, read-out: EC50
How it was run: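 As a marker of NRF2 activation, NQO1 specific activity was read from the rate of absorbance change at 570 nm in MTT cocktail over 30 minutes. Lysates came from BEAS-2B cells treated for 48 hours at 37° C, and EC50 was derived by 3-parameter fitting.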

SMILES | EC50
CC[C@@H]1CN(Cc2cc([C@@H](c3ccc4c(nnn4CC)c3C)C(C)(C)NC(=O)c3ccco3)ccc2C)S(=O)(=O)c2ccccc2O1 [Example 136, N-((S)-1-(3-(((R)-4-Ethyl-1,1-dioxido-3,4-dihydro-2H-benzo[b][1,4,5]oxathiazepin-2-yl)methyl)-4-methylphenyl)-1-(1-ethyl-4-methyl-1H-benzo[d][1,2,3]triazol-5-yl)-2-methylpropan-2-yl)furan-2-carboxamide] | 100 to 1000 nM
CC[C@@H]1CN(Cc2cc([C@@H](c3ccc4c(nnn4CC)c3C)C(C)(C)NC(=O)c3ccoc3)ccc2C)S(=O)(=O)c2ccccc2O1 [Example 137, N-((S)-1-(3-(((R)-4-Ethyl-1,1-dioxido-3,4-dihydro-2H-benzo[b][1,4,5]oxathiazepin-2-yl)methyl)-4-methylphenyl)-1-(1-ethyl-4-methyl-1H-benzo[d][1,2,3]triazol-5-yl)-2-methylpropan-2-yl)furan-3-carboxamide] | 10 to 100 nM
CC[C@@H]1CN(Cc2cc([C@@H](c3ccc4c(nnn4CC)c3C)C(C)(C)NC(=O)c3ccns3)ccc2C)S(=O)(=O)c2ccccc2O1 [Example 138, N-((S)-1-(3-(((R)-4-Ethyl-1,1-dioxido-3,4-dihydro-2H-benzo[b][1,4,5]oxathiazepin-2-yl)methyl)-4-methylphenyl)-1-(1-ethyl-4-methyl-1H-benzo[d][1,2,3]triazol-5-yl)-2-methylpropan-2-yl)isothiazole-5-carboxamide] | 10 to 100 nM
CC[C@@H]1CN(Cc2cc([C@@H](c3ccc4c(nnn4CC)c3C)C(C)(C)NC(=O)c3ccc(=O)n(C)c3)ccc2C)S(=O)(=O)c2ccccc2O1 [Example 139, N-((S)-1-(3-(((R)-4-Ethyl-1,1-dioxido-3,4-dihydro-2H-benzo[b][1,4,5]oxathiazepin-2-yl)methyl)-4-methylphenyl)-1-(1-ethyl-4-methyl-1H-benzo[d][1,2,3]triazol-5-yl)-2-methylpropan-2-yl)-1-methyl-6-oxo-1,6-dihydropyridine-3-carboxamide] | 10 to 100 nM
CC[C@@H]1CN(Cc2cc([C@@H](c3ccc4c(nnn4CC)c3C)C(C)(C)NC(=O)c3cccn(C)c3=O)ccc2C)S(=O)(=O)c2ccccc2O1 [Example 140, N-((S)-1-(3-(((R)-4-Ethyl-1,1-dioxido-3,4-dihydro-2H-benzo[b][1,4,5]oxathiazepin-2-yl)methyl)-4-methylphenyl)-1-(1-ethyl-4-methyl-1H-benzo[d][1,2,3]triazol-5-yl)-2-methylpropan-2-yl)-1-methyl-2-oxo-1,2-dihydropyridine-3-carboxamide] | 10 to 100 nM
CC[C@@H]1CN(Cc2cc([C@@H](c3ccc4c(nnn4CC)c3C)C(C)(C)NC(=O)c3ccn(C)c(=O)c3)ccc2C)S(=O)(=O)c2ccccc2O1 [Example 141, N-((S)-1-(3-(((R)-4-Ethyl-1,1-dioxido-3,4-dihydro-2H-benzo[b][1,4,5]oxathiazepin-2-yl)methyl)-4-methylphenyl)-1-(1-ethyl-4-methyl-1H-benzo[d][1,2,3]triazol-5-yl)-2-methylpropan-2-yl)-1-methyl-2-oxo-1,2-dihydropyridine-4-carboxamide] | 10 to 100 nM
CC[C@@H]1CN(Cc2cc([C@@H](c3ccc4c(nnn4CC)c3C)C(C)(C)NC(=O)CC(=O)O)ccc2C)S(=O)(=O)c2ccccc2O1 [Example 142, 3-(((S)-1-(3-(((R)-4-Ethyl-1,1-dioxido-3,4-dihydro-2H-benzo[b][1,4,5]oxathiazepin-2-yl)methyl)-4-methylphenyl)-1-(1-ethyl-4-methyl-1H-benzo[d][1,2,3]triazol-5-yl)-2-methylpropan-2-yl)amino)-3-oxopropanoic acid] | 10 to 100 nM
CC[C@@H]1CN(Cc2cc([C@@H](c3ccc4c(nnn4CC)c3C)C(C)(C)NC(=O)CS(C)(=O)=O)ccc2C)S(=O)(=O)c2ccccc2O1 [Example 143, N-((S)-1-(3-(((R)-4-Ethyl-1,1-dioxido-3,4-dihydro-2H-benzo[b][1,4,5]oxathiazepin-2-yl)methyl)-4-methylphenyl)-1-(1-ethyl-4-methyl-1H-benzo[d][1,2,3]triazol-5-yl)-2-methylpropan-2-yl)-2-(methylsulfonyl)acetamide] | 10 to 100 nM

Reference: US11078216B2, “Bisaryl amides as NRF2 activators” (GLAXOSMITHKLINE INTELLECTUAL PROPERTY DEVELOPMENT LIMITED, priority 2016, dated 2021)
